According to US20180249717A1, “HOUSE DUST MITE ALLERGY PROTEIN REMOVER, AND COMPOSITION THEREOF” (AYJ BIO LAB INC., priority 2015, published 2018):

Legend:
[1] = test system: Dermatophagoides pteronyssinus house dust mite proteins; assay: Dot-blot immunoassay for human-specific IgE reactivity (inhibition of allergenicity); format: binding; details: 500 μg each, allergic patient's serum IgE
Experimental: (§1) In addition, a dot-blot immunoassay for human-specific IgE reactivity was performed, as described previously [Tsai, L. C., Y. C. Sun, P. L. Chao, M. W. Hung, I. C. Kuo, et al. 2000. Protein sequence analysis and mapping of IgE and IgG epitopes of an allergenic 98 kDa Dermatophagoides farinae paramyosin, Der f 11. Allergy 55: 141147]. House dust mite proteins (10 μg) were applied to a PVDF membrane using a Hybri-Dot Manifold (Life Technologies, Gaithersburg, Md.) according to the manufacturer's instructions. After blocking with 0.1% PBS-T containing 5% skim milk, the membrane was incubated with 1:500 diluted allergic patient's antiserum at 4° C. overnight. After washing with 0.1% PBS-T three times, the membrane was incubated with 1:20000 diluted goat anti-human IgG (H+L)-HRP and IgE-HRP conjugate (Zymed Laboratories, Sanfrancisco, Calif.) for 1 hr at 25±1° C. The essential oils and compounds (500 μg each) were tested with the patient's serum which was diluted 1:250, and then incubated 1:5000 diluted IgE-HRP conjugate antibodies. After additional washing, as stated previously, the blot was incubated with ECL chemiluminescence reagent for 1 min and exposed to X-ray films for 5-20 min at room temperature. The intensity of the IgE-reacting dot was determined using a Bio-Rad Gel Doc XR image analyzer, as stated previously. Tannic acid served as a standard reference and was similarly formulated.
(§2) The reference numerals used in FIG. 2 indicate the following: C: untreated control; T: tannic acid; 1: spearmint essential oil; 2: Summer savory essential oil; 3: Oregano essential oil; 4: Carrot seed essential oil; 5: Catnip essential oil; 6: Mandarin essential oil; 7: Lime essential oil; and 8: Celery essential oil.
(§3) The inhibitory activities of the above-described plant essential oils and compounds against the allergenicity of two species of house dust mite proteins are shown in Tables 9 and 10 below, respectively. […]

[2] = test system: Dermatophagoides farina house dust mite proteins; assay: as above; format: binding; set-up: unit not given here; details: 500 μg each, allergic patient's serum IgE
Experimental: as §1, §2, §3

[3] = test system: house dust mite proteins (two major HDM allergens group 1 and 2); assay: SDS-PAGE denaturing/neutralizing activity against house dust mite proteins; format: biochemical; set-up: key: +++: comparable to or higher than the activity of the positive control tannic acid; ++: neutralizing activity somewhat lower than that of the positive control; details: compounds; incubated with mite proteins 1 hr at 25 C; relative to tannic acid
Description: Adult mites (both sexes, 6-8 days old) were extracted, as described previously [Nakada, S., K. Ito, C. Urata, Y. Sakamoto, M. Hasegawa, T. Nakagawa & T. Miyamoto. 1985. Allergenecity and immunogenicity of house-dust mite (Dermatophagoides farinae) antigens treated with glutaraldehyde. Ann. Allergy 54: 437441; Tovey, E. R. & B. A. Baldo. 1987. Comparison by electroblotting of IgE-binding components in ectracts of house dust mite bodies and spent mite culture. J. Allergy Clin. Immunol. 79: 93102.]. In brief, whole bodies (80 mg fresh weight/4 mL buffer) were homogenized on ice in 0.01 M phosphate-buffered saline (PBS) (pH 7.4) for 15 min. The homogenate was then stirred at 0° C. for 1 hr, centrifuged for 30 min at 14000 g, and concentrated by ultrafiltration to 1 mg/mL of protein.
The protein content was determined using a Bradford protein assay kit (Pierce, Rockford, Ill.). Bovine serum albumin (Pierce, Rockford, Ill.) was used as the standard. Precision Plus Protein Standards was supplied by Bio-Rad (Hercules, Calif.).
SDS-PAGE was performed according to the modified method of Laemmli [Laemmli, U.K. 1970. Cleavage of structural proteins during the assembly of the head of bacteriophage T4. Nature 227: 680685]. Based on the preliminary test results, mixtures of mite proteins ([…]) and each test material ([…]) in 4.5 μL of dimethyl sulfoxide (DMSO) were incubated for 1 hr at 25±1° C. Negative controls consisted of 4.5 μL of DMSO. Tannic acid or 3% tannic acid solution served as a positive control and was similarly formulated. Samples were mixed with an equal volume of SDS sample buffer (4% SDS, 4% mercaptoethanol, and 100 mM Tris-HCl, pH 8.0), boiled for 10 min, and resolved by electrophoresis on 12% (w/v) polyacrylamide gels by using a Mini-Protean 3 electrophoresis cell (Bio-Rad, Hercules, Calif.). After electrophoresis at 120 V for 80 min, the gels were stained with 0.1% Coomassie brilliant blue R-250 for quantification. The intensity of denaturing activity of each test material toward the two major HDM allergens group 1 and 2 was determined using a Gel Doc XR image analyzer with Quantity One Software (Bio-Rad, Hercules, Calif.) according to the manufacturer's instructions.
In FIG. 1, lane M represents a protein marker; land Ext represents a negative control loaded only with untreated house dust mite protein; lanes 5 and 6 indicate moderate activity; lanes 1, 2, 3 and 4 indicate strong activity; and lane TA represents a positive control treated with tannic acid.
Plant essential oils and compounds, confirmed to have neutralizing activity against house dust mites in the above experiments, are summarized in Tables 7 and 8 below, respectively.

[4] = test system: adult American house dust mites (Dermatophagoides farina); assay: Spray bioassay of spray formulations (acaricidal activity); format: in vivo; details: sprayed on cotton fabric, 24 h post-treatment
Experimental: The acaricidal effect of each of carrot seed essential formulations and spearmint essential oil formulations, dissolved in ethanolpolyoxyethylene+polyoxypropylene (9:1) styrenated phenyl ether, was evaluated using a spray bioassay.
In brief, a spray bioassay was used to evaluate the efficacy of four experimental spray formulations against adult American house dust mites (Dermatophagoides farina) [Lee, J. H., J. R. Kim, Y. R. Koh & Y. J. Ahn. 2013. Contact and fumigant toxicity of Pinus densiflora needle hydrodistillate constituents and related compounds and efficacy of spray formulations containing the oil to Dermatophagoides farinae. Pest Manag. Sci. 69: 696702]. Each test solution was sprayed two times successively at 10 cm upwards onto the 5 cm diameter black cotton-fabric circle. After drying for 5 min, each fabric circle was placed onto the bottom section of a disposable Petri dish (5 cm diameter×1 cm height). Groups of 40-50 adult mites (both sexes, 7-10 days old) were placed separately onto the treated fabric circles, and each dish was sealed with the original tight-fitting lid. 2.5 g/L of the commercial acaricide d-phenothrin or permethnrin (cis:trans, 25:75) spray served as a positive control. […] Mortalities were determined 24 h post-treatment under a dissecting microscope (×20). […]

[5] = test system: group 2 allergens (Der p II and Der f II); details: 3% tannic acid solution (wt/vol), compared with group 1; cited from earlier work
[6] = test system: group 1 allergens (Der p I and Der f I); details: 3% tannic acid solution (wt/vol); cited from earlier work

SMILES	Inhibition of allergenicity, Dermatophagoides pteronyssinus ([1]; compounds)	Inhibition of allergenicity, Dermatophagoides farina ([2]; compounds)	Neutralizing activity [3]	further results
C=CCN=C=S [Allyl isothiocyanate]	73.0	82.1	+++	–
CC=Cc1ccc(OC)cc1 [Anethole]	52.1	62.3	++	–
C/C=C\c1cc(OC)c(OC)cc1OC [Beta-asarone]	68.5	64.9	++	–
CC12CCC(CC1=O)C2(C)C (stereo not drawn) [Camphor]	77.9	78.2	++	–
CC(C)=CCCC(C)CCO (stereo not drawn) [Citronellol]	49.2	61.2	++	–
CC(C)c1ccccc1 [Cumene]	47.8	60.9	++	–
CC(C)c1ccc(C=O)cc1 [Cuminaldehyde]	76.1	80.4	+++	–
CC1=CCC2C(C1)C2(C)C (stereo not drawn) [Delta-3-carene]	78.1	77.9	+++	–
CC(C)=CCC/C(C)=C/C=O [Geranial]	68.1	72.6	+++	–
C=C(C)[C@@H]1CC[C@@H](C)C[C@H]1O [Isopulegol]	57.4	76.5	++	–
C=C(C)[C@H](CO)CC=C(C)C [Lavandulol]	62.7	74.4	++	–
C=CCc1cc(OC)c2c(c1)OCO2 [Myristicin]	67.0	76.3	+++	–
CC(C)=CCC/C(C)=C\C=O [Neral]	56.5	77.2	++	–
CC(C)=CCC/C(C)=C\CO [Nerol]	42.3	67.9	++	–
C=CC(C)(O)CCC=C(C)CCC=C(C)C (stereo not drawn) [Nerolidol]	67.7	42.3	++	–
C=C(C)[C@@H]1CC=C(CO)CC1 [Perilla alcohol]	56.5	68.7	++	–
C=C(C)C1CC=C(C=O)CC1 (stereo not drawn) [Perillaldehyde]	76.4	79.1	+++	–
CC1(C)C(C=C(Cl)Cl)C1C(=O)OCc1cccc(Oc2ccccc2)c1 (stereo not drawn) [Permethrin]	–	–	–	mortality at 2500 µg/mL ([4]; Dermatophagoides, spearmint essential oil sprays, permethrin spray 2.5 g/L as positive control, read-out: Mortality (%, standard error)): 17.3 ± 3.3%
O=C(OC[C@H]1O[C@@H](OC(=O)c2cc(O)c(O)c(OC(=O)c3cc(O)c(O)c(O)c3)c2)[C@H](OC(=O)c2cc(O)c(O)c(OC(=O)c3cc(O)c(O)c(O)c3)c2)[C@@H](OC(=O)c2cc(O)c(O)c(OC(=O)c3cc(O)c(O)c(O)c3)c2)[C@@H]1OC(=O)c1cc(O)c(O)c(OC(=O)c2cc(O)c(O)c(O)c2)c1)c1cc(O)c(O)c(OC(=O)c2cc(O)c(O)c(O)c2)c1 [Tannic acid, reference compound]	–	–	–	Inhibition of allergenicity, Dermatophagoides pteronyssinus ([1]; essential oils): 81.1; Denaturation of group 2 allergens [5]: somewhat less effective; Inhibition of allergenicity, Dermatophagoides farina ([2]; essential oils): 87.2; Denaturation of group 1 allergens [6]: denatures
Cc1ccc(C(C)C)c(O)c1 [Thymol]	67.9	79.4	+++	–
CC(C)=CC1C(C(=O)OCc2cccc(Oc3ccccc3)c2)C1(C)C (stereo not drawn) [d-Phenothrin, d-phenothrin]	–	–	–	Mortality (%, standard error) ([4]; carrot seed essential oil sprays, d-phenothrin spray 2.5 g/L as positive control): 8.3 ± 1.7 d %
